{
  "source": "paper PMC4871512",
  "about": "“Drug-Based Lead Discovery: The Novel Ablative Antiretroviral Profile of Deferiprone in HIV-1-Infected Cells and in HIV-Infected Treatment-Naive Subjects of a Double-Blind, Placebo-Controlled, Randomized Exploratory Trial” (PLoS ONE, 2016)",
  "key": {"[1]": {"settings": "cited from earlier work"}, "HIV-1": {"tested_on": "HIV-1", "test": "Proof-of-concept trial: HIV-1 RNA in plasma of treatment-naive HIV-infected subjects (ICR, ICD)", "format": "in vivo, human", "settings": "for period for which the decrease of HIV-1 RNA persists off-drug: 7-day / 17-dose course, responsive cohort; for ICR relative to pre-treatment level: regimen-compliant responsive sub-group (Subjects 1, 5, 20, 24)", "experimental": "Cell-free supernatants were used for p24 and HIV-1 RNA measurements. p24 core antigen in the supernatant was quantified by ELISA (Retrotek HIV-1 p24®; ZeptoMetrix Corp.; Buffalo, NY). HIV-1 RNA copy number in the supernatant of PBMC cultures and in plasma of trial subjects enrolled in the exploratory deferiprone trial was determined with a PCR-based and FDA-approved assay (Amplicor HIV-1 Monitor®; Roche Diagnostics Corp.; Indianapolis, IN). For clinical samples, the assay was used per the Standard Specimen Processing Procedure (sensitivity limit 400 copies/ml); for cell culture samples, the assay was used in both the Standard Specimen Processing and the UltraSensitive Specimen Processing Procedure (sensitivity limit 50 copies/ml). If not specified further, the term “log10” designates the amount of HIV-1 RNA in the dimensions [log10 / ml]. The Roche Amplicor HIV-1 DNA Test (Roche Diagnostics Corp.; Indianapolis, IN) was used for detection of HIV-1 DNA with the primer pair SK431/462, which amplifies a highly conserved region of the gag genome of HIV-1 subtype B DNA. […] Apoptotic DNA fragmentation was quantified flow-cytometrically, using a terminal deoxynucleotide transferase dUTP nick end-labeling (TUNEL) assay (APO-BRDU™; Phoenix Flow Systems; San Diego, CA). All experiments and assays were performed at least in duplicate.\nEligible for enrollment were volunteers of both genders, between 18 and 60 years old, healthy or HIV-infected with CD4 count ≥ 300/mm^3, viral load of ≥ 10,000 copies/ml, and absence of active infectious disease; AIDS-defining condition; febrile illness; liver or kidney disease; hypersensitivity to test material; and medication requirement. The protocol involved a screening visit; a pharmacokinetic and antiretroviral study requiring admission to a specialized Phase I research unit for a week of on-drug treatment, with multiple blood draws from a peripheral vein after oral intake of the first deferiprone dose, either 33 mg/kg or 50 mg/kg, and at least three repeat blood draws (first stage of protocol); an off-drug observation period of eight weeks, which comprised at least two repeat visits (second stage of protocol); and an exit visit. Enrollment complied with the applicable standard-of-care specified in the ‘Clinical Guidelines for the Management of HIV & AIDS in Adults and Adolescents’, National Department of Health, Republic of South Africa. Primary parameters included safety and tolerability (e.g. vital signs, laboratory variables, cardiac monitoring by ECG) and antiretroviral activity (e.g. RNA copies of HIV-1). Secondary parameters included pharmacokinetic variables (e.g. peak serum concentration) in serum, drawn from a peripheral vein at fixed times (0, 0.5, 1, 1.5, 2, 3, 4, 6, 9, 12) after the ingestion of the first dose on Day 1 of the study. The concentration of the nonconjugated, chelation-competent form of deferiprone in serum was determined by UV detection at 280 nm, after separation via reversed-phase HPLC under isocratic conditions. The lower limit of deferiprone quantitation was 1.466 μM, or 0.204 μg/ml. HIV-1 RNA was measured as described and used as log10-transformed parameter in all calculations.\n26 consecutive subjects were randomly enrolled in the IRB-approved proof-of-concept trial and gave written informed consent to be studied (Supporting Information, S2 Text); recruitment of trial subjects commenced in November 2006 and follow-up terminated in April 2008."}, "[2]": {"settings": "after 8 weeks off-drug, P = 0.003"}},
  "data": [
    {"smiles": "Cc1c(O)c(=O)ccn1C", "note": "[deferiprone, 3-hydroxy-1,2-dimethylpyridin-4-one]", "values": [
      {"measurement": "half-life in peripheral blood", "setting": "[1]; human", "value": "approximately 2 hour"},
      {"measurement": "peak serum level", "setting": "[1]; in vivo, 65.2 mg/kg", "value": "up to 450 µM"},
      {"measurement": "difference in peak serum concentration (cmax) between UGT1A6-typed subjects", "setting": "[1]; in vivo, po", "value": "up to 35%"},
      {"measurement": "difference in total drug exposure over time (AUC0 - ∞) between UGT1A6-typed subjects", "setting": "[1]; in vivo, po", "value": 38, "unit": "%"},
      {"measurement": "protocol-completing subjects with no viral load change", "setting": "HIV-1; 99 mg group (33 mg/kg/dose orally three times per day)", "value": 66, "unit": "%"},
      {"measurement": "ICR after the one-week treatment", "setting": "HIV-1; 99 mg group, Subjects 1, 2, 5, achieved threshold and had a viral response", "value": -0.36, "unit": "log10"},
      {"measurement": "ICR after the one-week treatment", "setting": "HIV-1; 99 mg group, Subjects 4, 6, 8, did not achieve the ≥150 μM threshold", "value": "+0.23 log10"},
      {"measurement": "ICD between threshold-achieving responders and non-achievers", "setting": "HIV-1; 99 mg group, one-week treatment, P = 0.004", "value": 0.59, "unit": "log10"},
      {"measurement": "within-subject variability of HIV-1 RNA reached after the one-week treatment", "setting": "HIV-1; 99 mg/kg group", "value": -0.45, "unit": "log10"},
      {"measurement": "within-subject variability of HIV-1 RNA reached after the one-week treatment", "setting": "HIV-1; 150 mg group", "value": -0.53, "unit": "log10"},
      {"measurement": "protocol-completing subjects with no viral load change", "setting": "HIV-1; 150 mg group (50 mg/kg/dose orally three times per day)", "value": 25, "unit": "%"},
      {"measurement": "ICR after the one-week treatment", "setting": "HIV-1; 150 mg group, Subjects 20, 22, 24, cmax ≥150 μM", "value": -0.39, "unit": "log10"},
      {"measurement": "period for which the decrease of HIV-1 RNA persists off-drug", "setting": "HIV-1", "value": 8, "unit": "weeks"},
      {"measurement": "period for which the decrease of HIV-1 RNA persists off-drug", "setting": "HIV-1; listed as Deferiprone", "value": "at least 8 weeks"},
      {"measurement": "off-drug retention of the HIV-1 RNA reduction as multiple of the drug's half-life", "setting": "HIV-1; 8 weeks off-drug after 17 doses", "value": "over 670 times"},
      {"measurement": "average level of HIV-1 RNA", "setting": "HIV-1; 'decrease' cohort, after 4 weeks off-drug", "value": 4.44, "unit": "log10"},
      {"measurement": "average level of HIV-1 RNA", "setting": "HIV-1; 'decrease' cohort, after 8 weeks off-drug", "value": 4.52, "unit": "log10"},
      {"measurement": "average level of HIV-1 RNA", "setting": "HIV-1; 'decrease' cohort, after 7 days (4.90 log10 initially)", "value": 4.53, "unit": "log10"},
      {"measurement": "average level of HIV-1 RNA", "setting": "HIV-1; 'no-decrease' cohort, after 4 weeks off-drug", "value": 4.83, "unit": "log10"},
      {"measurement": "average level of HIV-1 RNA", "setting": "HIV-1; 'no-decrease' cohort, after 8 weeks off-drug", "value": 4.70, "unit": "log10"},
      {"measurement": "average level of HIV-1 RNA", "setting": "HIV-1; 'no-decrease' cohort, after 7 days (4.53 log10 initially)", "value": 4.74, "unit": "log10"},
      {"measurement": "ICR after 8 weeks off-drug", "setting": "HIV-1; DTD 'decrease' cohort", "value": -0.31, "unit": "log10"},
      {"measurement": "ICR at the end of the first stage (S1, Day 7 vs Day 1)", "setting": "HIV-1; DTD 'decrease' cohort, N = 6", "value": -0.37, "unit": "log10"},
      {"measurement": "ICR after 8 weeks off-drug", "setting": "HIV-1; DTD 'no-decrease' cohort", "value": "+0.17 log10"},
      {"measurement": "ICR at the end of the first stage (S1, Day 7 vs Day 1)", "setting": "HIV-1; DTD 'no-decrease' cohort, N = 5", "value": "+0.21 log10"},
      {"measurement": "ICR at the end of 8 weeks off-drug", "setting": "HIV-1; Group A, cmax ≥150 μM", "value": -0.28, "unit": "log10"},
      {"measurement": "intra-cohort response (ICR), HIV-1 RNA Day 7 relative to Day 1", "setting": "HIV-1; Group A, cmax ≥150 μM on either dosage, N = 7, 7 days on-drug", "value": -0.27, "unit": "log10"},
      {"measurement": "subjects who achieved the threshold (cmax ≥150 μM) and showed a decline in viral load", "setting": "HIV-1; Group A, one-week treatment", "value": "6 of the 7"},
      {"measurement": "viral load in the 4 subjects who did not achieve the threshold", "setting": "HIV-1; Group B, one-week treatment", "value": "did not show a decline in viral load"},
      {"measurement": "ICR at the end of 8 weeks off-drug", "setting": "HIV-1; Group B, threshold-failing", "value": "+0.24 log10"},
      {"measurement": "change in viral load during the one-week treatment", "setting": "HIV-1; Subject 19, 150 mg group, cmax 128 μM", "value": "+0.02 log10"},
      {"measurement": "ICD Group A vs Group B", "setting": "HIV-1; [2]", "value": 0.52, "unit": "log10"},
      {"measurement": "ICD regimen-compliant 'decrease' sub-group vs 'no-decrease' cohort", "setting": "HIV-1; [2]", "value": 0.61, "unit": "log10"},
      {"measurement": "ICD 'decrease' vs 'no-decrease' cohort", "setting": "HIV-1; after 8 weeks off-drug, P = 0.008", "value": 0.48, "unit": "log10"},
      {"measurement": "intercohort difference (ICD) Group A vs Group B", "setting": "HIV-1; after one week on-drug", "value": 0.44, "unit": "log10"},
      {"measurement": "ICD 'decrease' vs 'no-decrease' cohort", "setting": "HIV-1; end of first stage S1, P = 0.0001", "value": 0.58, "unit": "log10"},
      {"measurement": "intra-cohort response (ICR), HIV-1 RNA Day 7 relative to Day 1", "setting": "HIV-1; human, in vivo", "value": "+0.17 log10"},
      {"measurement": "ICR relative to pre-treatment level", "setting": "HIV-1; after 8 weeks off-drug", "value": -0.38, "unit": "log10"},
      {"measurement": "ICR relative to pre-treatment level", "setting": "HIV-1; after 7 days on-drug", "value": -0.40, "unit": "log10"}
    ]}
  ]
}
